The results in this text go back to patent US12285012B2, “Compositions comprising pyridine carboxylate herbicides with acetolactate synthase (ALS) inhibitor herbicides” (Corteva Agriscience LLC, priority 2018, dated 2025).

Data set [1] concerns turnip (BRSRR, Brassica rapa). Put plainly: Greenhouse postemergence herbicidal effect. Type of data set: in vivo. The method in brief:
(§1)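 Herbicide mixtures, dosed as g ae/ha for the pyridine carboxylate and g ai/ha for the ALS inhibitor, are applied postemergence with cloquintocet-mexyl safener. Control plants receive solvent blank. Percent injury is assessed by eye 20–22 d later.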

Data set [2] has as its system R-PAPRH = Papaver rhoeas (corn poppy), herbicide-resistant. Put plainly: Greenhouse postemergence herbicidal effect. The format is in vivo. The method in brief: as §1
In data set [3] the test system is bird's-eye speedwell (VERPE, Veronica persica). Put plainly: Greenhouse postemergence herbicidal effect. The format is in vivo. The method in brief: as §1
Data set [4] relates to corn poppy (PAPRH, Papaver rhoeas). Put plainly: Greenhouse postemergence herbicidal effect. The format is in vivo. The method in brief:
as §1

Data set [5] has as its system false chamomile (MATIN, Matricaria inodora). Put plainly: Greenhouse postemergence herbicidal effect. The format is in vivo. The gist of the method:
as §1

Data set [6] has as its system field chamomile (ANTAR, Anthemis arvensis). Put plainly: Greenhouse postemergence herbicidal effect. Type of data set: in vivo. The gist of the method:
as §1

The test system of data set [7] is field violet (VIOAR, Viola arvensis). Put plainly: Greenhouse postemergence herbicidal effect. Type of data set: in vivo. The method in brief: as §1
Data set [8] relates to purple deadnettle (LAMPU, Lamium purpureum). As to the kind of experiment: Greenhouse postemergence herbicidal effect. The format is in vivo. The method in brief:
as §1

Data set [9] deals with shepherd's purse (CAPBP, Capsella bursa-pastoris). As to the kind of experiment: Greenhouse postemergence herbicidal effect. The format is in vivo. The gist of the method:
as §1

Data set [10] concerns wild mustard (SINAR, Sinapis arvensis). Put plainly: Greenhouse postemergence herbicidal effect. Type of data set: in vivo. The method in brief: as §1
Data set [11] has as its system winter barley (HORVW). As to the kind of experiment: Greenhouse postemergence crop phytotoxicity. Type of data set: in vivo, Hordeum vulgare. The source says:
Seeds of the desired test plant species were planted in a 90:10% v/v (volume/volume) mixture of PRO-MIX® BX (Premier Tech Horticulture, Quakertown, PA, USA) and PROFILE® GREENS GRADE™ (Profile Products LLC, Buffalo Grove, IL, USA) planting mixture, which typically has a pH of 5.2 to 6.2 and an organic matter content of at least 50 percent, in plastic pots with a surface area of 103.2 square centimeters (cm^2). In some aspects, to ensure good germination and healthy plants, a fungicide treatment and/or other chemical or physical treatment was applied. The plants were grown for 7-36 days (d) in a greenhouse with an approximate 14-hour (h) photo-period which was maintained at about 23° C. during the day and 22° C. during the night. Nutrients and water were added on a regular basis and supplemental lighting was provided with overhead metal halide 1000-Watt lamps as necessary. The plants were employed for testing when they reached the second or third true leaf stage.
Emulsifiable concentrates of each of each pyridine carboxylate herbicide (Compound A or Compound B) were prepared at 100 grams acid equivalent per liter (g ae/L). The emulsifiable concentrates also included a safener, cloquintocet-mexyl, at 120 grams active ingredient per liter (g ai/L), unless otherwise noted below. An aliquot of each emulsifiable concentrate was placed in a 25 mL glass vial and diluted with an aqueous mixture of 1.25% (v/v) ACTIROB® B esterified rapeseed oil (Bayer Crop Science, Research Triangle Park, NC, USA) or MSO® Concentrate with LECI-TECH® methylated soybean oil (Loveland Products, Loveland, CO, USA) to obtain concentrated stock solutions at the highest application rate for each herbicide, based upon a 12 milliliter (mL) application volume at a rate of 187 liters per hectare (L/ha). The concentrated stock solutions were further diluted with an aqueous mixture of 1.25% v/v ACTIROB® B or MSO® Concentrate with LECI-TECH® to obtain stock solutions at reduced application rates for each herbicide. Spray solutions of the herbicide combinations (Compound A or Compound B plus ALS herbicide) were prepared by adding weighed amounts or aliquots of the ALS herbicides to the stock solutions of Compound A or Compound B to form 12-mL spray solutions in two- or three-way combinations. […]
The treated plants and control plants were placed in a greenhouse as described above and watered by sub-irrigation to prevent wash-off of the test compounds. After 20-22 d, the condition of the test plants as compared with that of the control plants was determined visually and scored on a scale of 0 to 100 percent where 0 corresponds to no injury and 100 corresponds to complete kill.

The test system of data set [12] is annual ryegrass (LOLMG=Lolium multiflorum subsp. gaudini). Put plainly: Greenhouse postemergence herbicidal effect. Type of data set: in vivo. The note with it: 10 g/ha. The gist of the method:
(§2)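 Visual rating, 0 (no injury) to 100% (complete kill), taken 20–22 d after treatment relative to solvent-sprayed controls. Pyridine carboxylate (g ae/ha) combined with ALS herbicide (g ai/ha), applied by track sprayer at 187 L/ha with 1.25% v/v oil adjuvant and cloquintocet-mexyl safener.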

The test system of data set [13] is barnyard grass (ECHCG, Echinochloa crus-galli). Put plainly: Greenhouse postemergence herbicidal effect. The format is in vivo. The note with it: Compound A 10 g/ha. The method in brief:
(§3)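 Greenhouse plants at the second–third true leaf received overhead sprays (187 L/ha) of herbicide mixtures containing safener and oil adjuvant. Percent control or crop injury was judged by eye 20–22 d later on a 0–100 scale.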

Data set [14] concerns blackgrass (ALOMY, Alopecurus myosuroides). As to the kind of experiment: Greenhouse postemergence herbicidal effect. Type of data set: in vivo. The note with it: Compound A 10 g/ha; safener mefenpyr-diethyl. The method in brief: as §3
Data set [15] concerns broadleaf signalgrass (BRAPP, Brachiaria platyphylla). As to the kind of experiment: Greenhouse postemergence herbicidal effect. The format is in vivo. To be noted: Compound A 10 g/ha. The method in brief:
as §2

For data set [16], the system named is giant foxtail (SETFA, Setaria faberi). Put plainly: Greenhouse postemergence herbicidal effect. The format is in vivo. The method in brief: as §3
Data set [17] has as its system poinsettia (EPHHL, Euphorbia heterophylla). As to the kind of experiment: Greenhouse postemergence herbicidal effect. Type of data set: in vivo. The method in brief: as §2
For data set [18], the system named is wild oat (AVEFA, Avena fatua). As to the kind of experiment: Greenhouse postemergence herbicidal effect. The format is in vivo. The gist of the method: as §3
[19] abbreviates: Compound A 10 g/ha, safener mefenpyr-diethyl.

“And” between values parts separate entries of the source, which are not always exact repeats. Identical values can stand only once.

With `C#CCOC(=O)c1nc(-c2ccc3cc[nH]c3c2F)c(F)c(N)c1Cl` [Compound B, propargyl 4-amino-3-chloro-5-fluoro-6-(7-fluoro-1H-indol-6-yl)pyridine-2-carboxylate], the “Obs % visual injury” value in data set [1] (Compound B 10 g/ha) was 85%.

For the compound `N#CCOC(=O)c1nc(-c2ccc3cc[nH]c3c2F)c(F)c(N)c1Cl` [Compound A, cyanomethyl 4-amino-3-chloro-5-fluoro-6-(7-fluoro-1H-indol-6-yl)pyridine-2-carboxylate], the “% visual injury” value was 93% in data set [2] (Compound A 10 g/ha); 93% in [2] (Compound A 15 g/ha); 93% in data set [3] (Compound A 10 g/ha); 95% in data set [3] (Compound A 15 g/ha); 100% in data set [4] (Compound A 10 g/ha); 100% in data set [4] (Compound A 15 g/ha). In addition, the “% visual injury” value in data set [5] (Compound A 10 g/ha) was 100%; in data set [5] (Compound A 15 g/ha), 100%; in data set [6] (Compound A 10 g/ha) it was 90%; in data set [6] (Compound A 15 g/ha), 95%; in data set [7] (Compound A 10 g/ha) it was 5%; in data set [7] (Compound A 15 g/ha), 5%. Further, the “% visual injury” value is 75% in data set [8] (Compound A 10 g/ha); 75% in data set [8] (Compound A 15 g/ha); 70% in data set [9] (Compound A 10 g/ha); 80% in data set [9] (Compound A 15 g/ha); 95% and 90% and 88% and 93% in data set [10] (Compound A 10 g/ha); 97% and 93% in data set [10] (Compound A 15 g/ha). Besides, the “% visual injury” value in data set [11] (Compound A 10 g/ha) came to 0%; in data set [11] (Compound A 15 g/ha), 0%; in data set [17] (Compound A 10 g/ha), 97%. The “% visual injury, Obs” value is 90% and 92% and 88% in data set [10] (10 g/ha); 100% in data set [10] (Compound A 10 g/ha); 93% in data set [10] (SINAR, Compound A 10 g/ha); 93% in data set [10] (SINAR, Compound A 15 g/ha); 3% in [12]; 85% in data set [13] (safener mefenpyr-diethyl). Also, the “% visual injury, Obs” value in [14] stood at 13%; in data set [16] (10 g/ha), 0%; in [16] (setting [19]), 80%; in [17] (10 g/ha) it was 83%; in [18] (10 g/ha), 0%; in data set [18] (setting [19]) it was 0%. In addition, the “% visual injury Obs” value in data set [10] (Compound A 10 g/ha) is 93% and 92% and 88%; in data set [10] (Compound A 15 g/ha) it was 93%; in data set [13] it was 85%; in data set [15], 68%. Besides, in data set [10] (Compound A 10 g/ha (Examples 62-63)), the “SINAR % visual injury Obs” value was found to be 100%. Further, the “Obs % visual injury” value in data set [10] (SINAR, Compound A 10 g/ha) is 93% and 88% and 100%; in [10] (SINAR, Compound A 10 g/ha (Table 65)), 100%; in data set [10] (SINAR, Compound A 10 g/ha (Table 66)) it was 88%; in [10] (SINAR, Compound A 15 g/ha) it was 93%. Further, the “ECHCG % visual injury Obs” value in data set [13] (safener mefenpyr-diethyl) is 85%. Also, the “ALOMY % visual injury Obs” value in data set [14] was found to be 13%. The “SETFA % visual injury Obs” value in [16] (setting [19]) worked out at 80%. For the same compound, in [18] (setting [19]), the “AVEFA % visual injury Obs” value turned out to be 0%.

For the compound `COc1ncc(F)c2nc(S(=O)(=O)Nc3c(F)cccc3F)nn12` [Florasulam, florasulam], the “% visual injury” value in data set [2] (Florasulam 5 g/ha) is 75%; in [3] (Florasulam 5 g/ha), 10%; in data set [4] (Florasulam 5 g/ha), 97%; in data set [5] (Florasulam 5 g/ha), 100%; in data set [6] (Florasulam 5 g/ha) it was 70%; in data set [7] (Florasulam 5 g/ha), 10%. Moreover, the “% visual injury” value in data set [8] (Florasulam 5 g/ha) was 10%; in [9] (Florasulam 5 g/ha), 80%; in data set [10] (Florasulam 5 g/ha) it was 95%; in data set [11] (Florasulam 5 g/ha) it was 0%. In [1] (Florasulam 5 g/ha), the “Obs % visual injury” value turned out to be 95%. Further, in data set [10] (Florasulam 3.75 g/ha), the “% visual injury Obs” value is listed as 85%.
